Assay results: patent US4605655A, “Antipsychotic 1-fluorophenylbutyl-4-(2-pyrimidinyl)piperazine derivatives” (Bristol-Myers Company, priority 1984, dated 1986)
“Also recorded” adds a separate entry of the source. Where two headings read alike, the source gives them in different places.

Assays:
[1] = tested on: apomorphine stereotypy (dopaminergic activity); assay: Inhibition of Apomorphine-Induced (APO) Stereotypy; format: in vivo, rats
Text: 2. Inhibition of Apomorphine-Induced (APO) Stereotype--an assessment of blockade of dopaminergic activity in rats as measured by attentuation of the behavioral syndrome caused by the dopamine agonist, apomorphine. cf. Janssen, et al, Arzneimittel. Forsch., 17, 841 (1966).

[2] = Catalepsy Reversal (neuroleptic-induced catalepsy); format: in vivo, rat; details: for Catalepsy Reversal ED50: p.o.; for reversal of neuroleptic-induced catalepsy, potency relative to racemic material: compared with racemic BMY 14802
Text: 4. Catalepsy Reversal--measure of a drug's ability to reverse neuroleptic-induced catalepsy in the rat.

[3] = Conditioned Avoidance Response (CAR); format: in vivo, trained fasted rats
Text: 1. Conditioned Avoidance Response (CAR)--measure of a drug's tranquilizing activity as determined by its attenuation of avoidance response to electrical shock in trained fasted rats. cf: Albert, Pharmacologist, 4, 152 (1962); Wu, et al, J. Med. Chem., 12, 876-881 (1969).

[4] = Catalepsy; format: in vivo, rats; details: for ED50: rat, in vivo, po
[5] = tested on: norepinephrine lethality (α1-adrenergic blockade); assay: Inhibition of Norepinephrine (NE) Lethality; format: in vivo; details: po; read-out: Inhibition of NE Lethality ED50 (alpha-block)
Text: 5. Inhibition of Norepinephrine Lethality--drug inhibition of the lethality of noradrenergic drug norepinephrine indicates α1 -adrenergic blockade.

[6] = tested on: α2-adrenergic binding sites; assay: α2-adrenergic receptor binding; details: in words
Text: (§1) As further indication of the psychotropic activity and specificity of the instant compounds, state of the art in vitro central nervous system receptor binding methodology can be employed. Certain compounds (commonly referred to as ligands) have been identified which preferentially bind to specific high affinity sites in brain tissue dealing with psychotropic activity or potential for side effects. Inhibition of radiolabeled ligand binding to such specific high affinity sites is considered a measure of the compound's ability to affect corresponding central nervous system function or cause side effects in vivo. This principal is employed in the following assays which are given by way of example.
Rosenblatt, et al., Brain Res., 160: 186
(1979); U'Prichard, et al., Science, 199:
197 (1978); U'Prichard, et al., Molec.

[7] = tested on: serotonergic binding sites; assay: Serotonergic receptor binding; details: in words
Text: as §1
Peroutka and Snyder, Molec. Pharmacol.,

[8] = target: Muscarinic Cholinergic receptor; assay: Muscarinic cholinergic receptor binding
Text: as §1, with “Certain compounds (commonly referred to as ligands) have been identified which preferentially bind to specific high affinity sites in brain tissue dealing with psychotropic activity or potential for side effects.” left out
Cholinergic Yamamura, et al., Proc. Natn. Acad. Sci.

[9] = tested on: opiate binding sites; assay: Opiate receptor binding; details: in words
Text: as §1

[10] = tested on: GABA binding sites; assay: GABA receptor binding; details: in words
Text: as §1

[11] = tested on: Dopamine receptor (striatal tissue); assay: Dopamine (DA) receptor binding vs. [^3 H]spiperone
Text: as §1, with “Certain compounds (commonly referred to as ligands) have been identified which preferentially bind to specific high affinity sites in brain tissue dealing with psychotropic activity or potential for side effects.” left out
Dopamine Burt, et al., Molec. Pharmacol., 12, 800

[12] = tested on: α1 receptor; assay: α1 binding vs. [^3 H]WB4101
Text: as §1, with “Certain compounds (commonly referred to as ligands) have been identified which preferentially bind to specific high affinity sites in brain tissue dealing with psychotropic activity or potential for side effects.” left out

[13] = Rattus norvegicus, po; read-out: Inhibition of APO-Stereotypy ED50
[14] = Rattus norvegicus, po; read-out: CAR ED50
[15] = in rats; compared with racemic BMY 14802; in words

CSc1ccc2c(c1)N(CCC1CCCCN1C)c1ccccc1S2 (stereo not shown) [Thioridazine, reference compound]
ED50 [1, 13]: 280 mg/kg | Catalepsy Reversal ED50 [2]: I | ED50 [3, 14]: 126 mg/kg | ED50 [4]: 45.2 mg/kg | ED50 [5]: 2.2 mg/kg

OC(CCCN1CCN(c2ncccn2)CC1)c1ccc(F)cc1 (stereo not shown) [des-fluoro analog of MJ 14802]
time after which CAR activity is lost ([3]; rat, in vivo): lost after three hours

CN1CCN(C2=Nc3cc(Cl)ccc3Nc3ccccc32)CC1 [Clozapine, reference compound]
ED50 [1, 13]: 49.2 mg/kg | Catalepsy Reversal ED50 [2]: I | ED50 [3, 14]: 24 mg/kg | ED50 [4]: > 200 mg/kg | ED50 [5]: 3.5 mg/kg

Cl.OC(CCCN1CCN(c2ncc(F)cn2)CC1)c1ccc(F)cc1 (racemic) [MJ 14802, 4-[4-[5-Fluoro-2-pyrimidinyl]-1-piperazinyl]-1-(4-fluorophenyl)butanol Hydrochloride]
ED50 ([1]; Rattus norvegicus, po, read-out: Inhibition of APO-Stereotypy ED50): 33 mg/kg | duration of action in the inhibition of apomorphine stereotypy ([1]; rat, in vivo): 4 h | ED50 ([2]; Rattus norvegicus, po, read-out: Catalepsy Reversal ED50): 16.9 mg/kg | reversal of neuroleptic-induced catalepsy ([2]; in words): reverses neuroleptic-induced catalepsy | ED50 ([3]; Rattus norvegicus, po, read-out: CAR ED50): 26.4 mg/kg | duration of action in the inhibition of the CAR ([3]; rat, in vivo): > 7 h | catalepsy production ([4]; in words): fails to cause catalepsy | ED50 [4]: > 100 mg/kg | activity at α2-adrenergic binding sites [6]: essentially inactive | activity at serotonergic binding sites [7]: essentially inactive | IC50 [8]: > 1000 nM | activity at cholinergic binding sites ([8]; in words, Hydrochloride): essentially inactive; also recorded: lacks anticholinergic | activity at opiate binding sites [9]: essentially inactive | ED50 [5]: > 100 mg/kg | activity at GABA binding sites [10]: essentially inactive | dopamine receptor binding ([11]; in words): very weak dopamine receptor binding | IC50 ([11]; vs. [^3 H]spiperone, read-out: DA Binding (vs. [^3 H]spip.) IC50): 6400 nM | α1-adrenergic activity ([12]; in words): lacks anticholinergic and α1 -adrenergic activities | IC50 ([12]; vs. [^3 H]WB4101): 520 nM

O.OC(CCCN1CCN(c2ncc(F)cn2)CC1)c1ccc(F)cc1 (single isomer, unassigned) [(-)-- enantiomer, (-)-α-(4-Fluorophenyl)-4-(5-fluoro-2-pyrimidinyl)-1-piperazinebutanol Hydrate]
inhibition of apomorphine stereotypy, potency relative to racemic material [1, 15]: more potent than racemic material | reversal of neuroleptic-induced catalepsy, potency relative to racemic material ([2]; in words): less potent

OC(CCCN1CCN(c2ncc(F)cn2)CC1)c1ccc(F)cc1 (single isomer, unassigned) [(+)-- enantiomer of BMY 14802, (+)--α-(4-Fluorophenyl)-4-(5-fluoro-2-pyrimidinyl)-1-piperazinebutanol Hydrate]
inhibition of apomorphine stereotypy, potency relative to racemic material [1, 15]: The converse was true | reversal of neuroleptic-induced catalepsy, potency relative to racemic material ([2]; in words): The converse was true
